Data from patent US4159373A, “7-Acyl-3-(sulfonic acid and sulfamoyl substituted tetrazolyl thiomethyl) cephalosporins” (SmithKline Corporation, priority 1978, dated 1979).
Converted amounts (≈) assume the structure as drawn. Like-named read-outs stand apart in the source and are kept apart here.

Columns and labels:
[1] = test system: Enterobacter cloacae 921; experiment: MIC in vitro; type: cell-based
[2] = test system: Staph. aureus 674; experiment: MIC in vitro; type: cell-based
[3] = test system: Serra. marc ATCC 13880; experiment: MIC in vitro; type: cell-based, Serratia marcescens; conditions: Serratia marcescens
Description: (§1) The compounds of Formula I have exceptional antibacterial activity against both Gram-positive and Gram-negative organisms. Minimum inhibitory concentrations (MIC's) ranged from 0.2 to <200 μg./ml. in in vitro testing.

[4] = test system: Proteus morgani 179; experiment: MIC in vitro; type: cell-based
Description: as §1

[5] = test system: E. coli SK 12140; experiment: MIC in vitro; type: cell-based; conditions: Escherichia coli
Description: as §1

[6] = test system: Strep. Faecalis HH 34358; experiment: MIC in vitro; type: cell-based; conditions: Enterococcus faecalis
Description: as §1

[7] = test system: S. aureus HH 127; experiment: MIC in vitro; type: cell-based; conditions: Staphylococcus aureus
Description: as §1

[8] = test system: Entero. aerog. ATCC 13048; experiment: MIC in vitro; type: cell-based, Enterobacter aerogenes; conditions: Klebsiella aerogenes
Description: as §1

[9] = test system: Kleb. pneumo. 4200; experiment: In vivo mouse protection, Kleb. pneumo. 4200; conditions: sc
[10] = test system: Psuedo. sp. HH 63; experiment: MIC in vitro; type: cell-based, Pseudo. aeruginosa; conditions: Pseudomonas aeruginosa
Description: as §1

[11] = test system: Kleb. pneumoniae 982; experiment: MIC in vitro; type: cell-based; conditions: Klebsiella pneumoniae, read-out: MIC
[12] = test system: Kleb. pneumo. SK 4200; experiment: MIC in vitro; type: cell-based, Kleb. pneumoniae; conditions: Klebsiella pneumoniae
Description: as §1

[13] = test system: Kleb. pneumo. SK 1200; experiment: MIC in vitro; type: cell-based, Kleb. pneumoniae; conditions: Klebsiella pneumoniae
Description: as §1

[14] = test system: E. coli 12140; experiment: In vivo mouse protection, E. coli 12140
[15] = test system: E. coli 804; experiment: MIC in vitro; type: cell-based; conditions: Escherichia coli, read-out: MIC
[16] = test system: Pseudo. aeruginosa 647; experiment: MIC in vitro; type: cell-based; conditions: Pseudomonas aeruginosa, read-out: MIC
[17] = test system: Staph. aureus 671; experiment: MIC in vitro; type: cell-based; conditions: Staphylococcus aureus
[18] = test system: Proteus mirabilis 444; experiment: MIC in vitro; type: cell-based; conditions: read-out: MIC
[19] = test system: S. villaluz; experiment: MIC in vitro; type: cell-based; conditions: Table 1
Description: as §1

[20] = test system: S. aureus SK 23390; experiment: MIC in vitro; type: cell-based; conditions: Staphylococcus aureus, SK23390, Table 1; S. aureus SK 23390; read-out: MIC in vitro
Description: as §1

[21] = test system: Salmonella ATCC 12176; experiment: MIC in vitro; type: cell-based; conditions: Salmonella, ATCC12176, Table 1, read-out: MIC in vitro
Description: as §1

[22] = test system: E. coli HH 33779; experiment: MIC in vitro; type: cell-based; conditions: Escherichia coli, HH33779, Table 1; E. coli HH 33779; read-out: MIC in vitro
Description: as §1

[23] = test system: shigella HH 117; experiment: MIC in vitro; type: cell-based; conditions: HH117; Table 1; shigella HH 117; read-out: MIC in vitro
Description: as §1

[24] = test system: Entero. cloacae HH 31254; experiment: MIC in vitro; type: cell-based; conditions: Enterobacter cloacae
[25] = ATCC13880, Table 1, Serra. marc ATCC 13880, read-out: MIC in vitro
[26] = Table 1, read-out: MIC in vitro
[27] = Table 1, Strep. Faecalis HH 34358, read-out: MIC in vitro
[28] = HH127, Table 1, S. aureus HH 127, read-out: MIC in vitro
[29] = ATCC13048, Table 1, Entero. aerog. ATCC 13048, read-out: MIC in vitro
[30] = Table 2, Kleb. pneumo. 4200, s.c., read-out: ED50 in vivo
[31] = Table 1, Psuedo. sp. HH 63, read-out: MIC in vitro
[32] = Table 1, Kleb. pneumo. SK 4200, read-out: MIC in vitro
[33] = Escherichia coli, 12140, po, Table 2, E. coli 12140, p.o., read-out: ED50 in vivo
[34] = Escherichia coli, 12140, sc, Table 2, E. coli 12140, s.c., read-out: ED50 in vivo

Compound `NCc1cccc(CC(=O)NC2C(=O)N3C(C(=O)O)=C(CSc4nnnn4CS(=O)(=O)O)CSC23)c1` (stereo not drawn) [Example 55, 7-(3-Aminomethylphenylacetamido)-3-(1-sulfomethyltetrazol-5-ylthiomethyl)-3-cephem-4-carboxylic acid] has an MIC ([1]; Enterobacter cloacae, 921, Example 55 table) of 25 µg/mL (≈ 45 µM), an MIC ([2]; Staphylococcus aureus, 674, Example 55 table) of 1.6 µg/mL (≈ 2.88 µM) and an MIC ([3]; ATCC13880, Example 55 table, Serratia marcescens ATCC 13880, read-out: MIC) greater than 100 µg/mL. The MIC ([4]; Example 55 table, read-out: MIC) was greater than 100 µg/mL, the MIC ([5]; SK12140, Example 55 table, E. coli SK&F 12140, read-out: MIC) was 1.6 µg/mL (≈ 2.88 µM) and the MIC ([6]; Example 55 table, Strep. faecalis HH 34358, read-out: MIC) was 100 µg/mL (≈ 180 µM). It also gave an MIC ([7]; Example 55 table, Staph. aureus HH127, read-out: MIC) of 1.6 µg/mL (≈ 2.88 µM), an MIC ([8]; ATCC13048, Example 55 table, Enterobacter aerogenes 13048, read-out: MIC) of 50 µg/mL (≈ 90 µM) and an ED50 ([9]; Example 55, s.c., K. pneumo. SK&F 4200, read-out: ED50) of less than 0.19 mg/kg. It also gave an MIC ([10]; Example 55 table, Pseudo. aeruginosa HH63, read-out: MIC) greater than 100 µg/mL, an MIC ([11]; Example 55 table) greater than 100 µg/mL and an MIC ([12]; Example 55 table, Kleb. pneumoniae SK&F 4200, read-out: MIC) of 0.2 µg/mL (≈ 0.36 µM). It also gave an MIC ([13]; Example 55 table, Kleb. pneumoniae SK&F 1200, read-out: MIC) of no more than 0.1 µg/mL, an ED50 ([14]; Escherichia coli, 12140, sc, Example 55, s.c., E. coli SKF 12140, read-out: ED50) of 1.82 mg/kg and an MIC ([15]; Example 55 table) greater than 100 µg/mL. The MIC ([16]; Example 55 table) was greater than 100 µg/mL, the MIC ([17]; Example 55 table) was 6.3 µg/mL (≈ 11.3 µM) and the MIC ([18]; Example 55 table) was 0.4 µg/mL (≈ 0.72 µM).
`NCc1ccc(CC(=O)NC2C(=O)N3C(C(=O)O)=C(CSc4nnnn4CS(=O)(=O)O)CSC23)cc1` (stereo not drawn) [Example 54, 7-(4-Aminomethylphenylacetamido)-3-(1-sulfomethyltetrazol-5-ylthiomethyl)-3-cephem-4-carboxylic acid] was tested, and the MIC ([1]; Enterobacter cloacae, 921, Example 54 table) was 100 µg/mL (≈ 180 µM), the MIC ([2]; Staphylococcus aureus, 674, Example 54 table) was 3.1 µg/mL (≈ 5.58 µM) and the MIC ([3]; ATCC13880, Example 54 table, Serratia marcescens ATCC 13880, read-out: MIC) was greater than 100 µg/mL. For the same compound, the MIC ([4]; Example 54 table, read-out: MIC) was greater than 100 µg/mL, the MIC ([5]; SK12140, Example 54 table, E. coli SK&F 12140, read-out: MIC) was 6.3 µg/mL (≈ 11.3 µM) and the MIC ([6]; Example 54 table, Strep. faecalis HH 34358, read-out: MIC) was 100 µg/mL (≈ 180 µM). It also gave an MIC ([7]; HH127, Example 54 table, Staph. aureus HH 127, read-out: MIC) of 6.3 µg/mL (≈ 11.3 µM), an MIC ([8]; ATCC13048, Example 54 table, Enterobacter aerogenes 13048, read-out: MIC) greater than 100 µg/mL and an ED50 ([9]; Example 54, s.c., K. pneumo. SKF 4200, read-out: ED50) of 0.7 mg/kg. The MIC ([10]; Example 54 table, Pseudo. aeruginosa HH 63, read-out: MIC) was greater than 100 µg/mL, the MIC ([11]; Example 54 table) was greater than 100 µg/mL and the MIC ([12]; Example 54 table, Kleb. pneumoniae SK&F 4200, read-out: MIC) was 0.4 µg/mL (≈ 0.72 µM). For the same compound, the MIC ([13]; Example 54 table, Kleb. pneumoniae SK&F 1200, read-out: MIC) was 0.4 µg/mL (≈ 0.72 µM), the ED50 ([14]; Escherichia coli, 12140, sc, Example 54, s.c., E. coli SKF 12140, read-out: ED50) was 8.7 mg/kg and the MIC ([15]; Example 54 table) was greater than 100 µg/mL. It also gave an MIC ([16]; Example 54 table) greater than 100 µg/mL, an MIC ([17]; Example 54 table) of 3.1 µg/mL (≈ 5.58 µM) and an MIC ([18]; Example 54 table) of 1.6 µg/mL (≈ 2.88 µM).
`NS(=O)(=O)CCn1nnnc1SCC1=C(C(=O)O)N2C(=O)C(NC(=O)Cc3cccs3)[C@H]2SC1` (stereo partly drawn) [VIII, 7-(2-thienylacetamido)-3-[1-(2-sulfamoylethyl)tetrazol-5-ylthiomethyl]-3-cephem-4-carboxylic acid] gave an MIC [3, 25] of 200 µg/mL (≈ 367 µM), an MIC [19] of 1.6 µg/mL (≈ 2.93 µM) and an MIC [4, 26] greater than 200 µg/mL. For the same compound, the MIC ([5]; SK12140, Table 1, E. coli SK 12140, read-out: MIC in vitro) was 0.8 µg/mL (≈ 1.47 µM), the MIC [20] was 0.1 µg/mL (≈ 0.183 µM) and the MIC [6, 27] was 6.3 µg/mL (≈ 11.5 µM). The MIC [21] was 0.8 µg/mL (≈ 1.47 µM), the MIC [22] was 1.6 µg/mL (≈ 2.93 µM) and the MIC [7, 28] was 0.4 µg/mL (≈ 0.733 µM). It also gave an MIC [23] of 0.4 µg/mL (≈ 0.733 µM), an MIC [8, 29] of 3.1 µg/mL (≈ 5.68 µM) and an ED50 [9, 30] of 2 mg/kg. For the same compound, the MIC [10, 31] was greater than 200 µg/mL, the MIC ([24]; HH31254, Table 1, read-out: MIC in vitro) was 0.8 µg/mL (≈ 1.47 µM) and the MIC [12, 32] was 1.6 µg/mL (≈ 2.93 µM). For the same compound, the MIC ([13]; read-out: MIC in vitro) was 0.4 µg/mL (≈ 0.733 µM), the ED50 [14, 33] was greater than 50 mg/kg and the ED50 [14, 34] was 1.32 mg/kg.
`O=C(Cn1cnnn1)NC1C(=O)N2C(C(=O)O)=C(CSc3nnnn3CS(=O)(=O)O)CSC12` (stereo not drawn) [X, 7-(1-tetrazolylacetamido)-3-(1-sulfomethyltetrazol-5-ylthiomethyl)-3-cephem-4-carboxylic acid] was tested, and the MIC [3, 25] was 200 µg/mL (≈ 386 µM), the MIC [19] was greater than 200 µg/mL and the MIC [4, 26] was 200 µg/mL (≈ 386 µM). For the same compound, the MIC ([5]; SK12140, read-out: MIC in vitro, Table 1, E. coli SK 12140) was 0.4 µg/mL (≈ 0.771 µM), the MIC [20] was 1.6 µg/mL (≈ 3.09 µM) and the MIC [6, 27] was 50 µg/mL (≈ 96.4 µM). The MIC [21] was 0.4 µg/mL (≈ 0.771 µM), the MIC [22] was 0.8 µg/mL (≈ 1.54 µM) and the MIC [7, 28] was 1.6 µg/mL (≈ 3.09 µM). It also gave an MIC [23] of 0.2 µg/mL (≈ 0.386 µM), an MIC [8, 29] of 3.1 µg/mL (≈ 5.98 µM) and an ED50 [9, 30] of 0.64 mg/kg. For the same compound, the MIC [10, 31] was greater than 200 µg/mL, the MIC ([24]; HH31254, read-out: MIC in vitro, Table 1) was 0.8 µg/mL (≈ 1.54 µM) and the MIC [12, 32] was 0.4 µg/mL (≈ 0.771 µM). It also gave an MIC ([13]; Table 1, Kleb. pneumo. SK 1200, read-out: MIC in vitro) of 0.2 µg/mL (≈ 0.386 µM), an ED50 [14, 33] of 50 mg/kg and an ED50 [14, 34] of 1.56 mg/kg.
